From patent US20250057791A1, “PROTECTION AGAINST ARTHROPOD PARASITES WITH PURINERGIC RECEPTOR (OPR) ANTAGONISTS” (priority 2021, published 2025)

Key:
Amblyomma hebraeum = assay: Glass capillary feeding of partly fed female ticks, Amblyomma hebraeum; type: in vivo; conditions: females
Excerpt: I. ricinus adults were prefed for 3-4 days and A. hebraeum adults for 10 days on a membrane over bovine blood (Kröber T. and Guerin P. M., 2007, supra). Partly fed I. ricinus and A. hebraeum, freshly detached from the membrane, were tightly fixed by the scutum and alloscutum to double-sided adhesive tape (Tesafix® 4964, Beiersdorf, Hamburg, Germany) on a glass slide and secured with plasticine. Test compounds were fed to these partly-fed female ticks using borosilicate capillary tubes (Clark GC120-10, 0.69 mm i.d., 1.2 mm o.d., 50 mm long; Clark Electromedical Instruments, Pangbourne, Reading, UK) with drawn out tips adapted to fit around the mouthparts of individual ticks. Feeding capillaries were filled with a solution of 100 mM NaCl, 8.9 mM NaHCO3 with 1000 μM ATP added, hereafter termed tick feeding solution (TFS) that served as positive control in each feeding experiment. PR antagonists were added to the TFS and pH of the solution was adjusted to 7.2-7.8. Capillary-fed ticks were kept in a plastic box on a warm plate at 34° C. and 80% RH using wet paper. After 1 h, the amount of solution imbibed by a tick was indicated by the drop of the meniscus in the capillary and measured using Vernier callipers and converted to mg. […]

Ixodes ricinus = assay: Glass capillary feeding of partly fed female ticks, Ixodes ricinus; type: in vivo; conditions: for Fluid intake, Median (mg): females, glass capillary
Excerpt: I. ricinus adults were prefed for 3-4 days and A. hebraeum adults for 10 days on a membrane over bovine blood (Kröber T. and Guerin P. M., 2007, supra). Partly fed I. ricinus and A. hebraeum, freshly detached from the membrane, were tightly fixed by the scutum and alloscutum to double-sided adhesive tape (Tesafix® 4964, Beiersdorf, Hamburg, Germany) on a glass slide and secured with plasticine. Test compounds were fed to these partly-fed female ticks using borosilicate capillary tubes (Clark GC120-10, 0.69 mm i.d., 1.2 mm o.d., 50 mm long; Clark Electromedical Instruments, Pangbourne, Reading, UK) with drawn out tips adapted to fit around the mouthparts of individual ticks. Feeding capillaries were filled with a solution of 100 mM NaCl, 8.9 mM NaHCO3 with 1000 μM ATP added, hereafter termed tick feeding solution (TFS) that served as positive control in each feeding experiment. PR antagonists were added to the TFS and pH of the solution was adjusted to 7.2-7.8. Capillary-fed ticks were kept in a plastic box on a warm plate at 34° C. and 80% RH using wet paper. After 1 h, the amount of solution imbibed by a tick was indicated by the drop of the meniscus in the capillary and measured using Vernier callipers and converted to mg.
Uptake of TFS containing PR antagonists, converted to mg/h for hard ticks and weight gains in mg/25 min for soft ticks, was compared to TFS uptake in the corresponding positive controls. […] For tsetse and horn flies the percentage flies that fed per antagonist treatment served as the criterion for inhibition of feeding. As horn fly sexes emerged within 24 h, both sexes were assumed to show the same degree of appetence. In tsetse, males emerged first so a gender-related appetence could not be excluded. No sex-related feeding differences in feeding were found for testse (GLM, P>0.05) so data for the sexes were pooled. Comparisons of percentage fed flies were made using a Bayesian GLM—the most appropriate model considering the zero-inflated distributions shown by the data sets. […]

[1] = system: A. gambiae labellum sensilla (purine-sensitive cell); assay: Tip recording of action potentials from A. gambiae labellum sensilla in response to agonists; type: cell-based, Anopheles gambiae
Procedure: The tip recording method was used to record action potentials (spikes) from sensory cells in sensilla on A. gambiae labellum lobes.
Sensilla were exposed to test compounds and PR antagonists for ca. 2-4 s and spikes were counted in the first 2 s of recordings. Up to 4 test compounds were tested on a sensillum to evaluate potential agonists, each presented at 200 pM. To study responses as a function of dose for agonists ATP, adenosine, AMP, AMP-CPP and ATP+adenosine, up to 7 recordings were made at increasing doses of agonist from the same sensillum. Unless otherwise stated, recordings were made throughout from 4 to 16 sensilla from individual 4-6-day-old females per dose of agonist, antagonist and metal ion modulator. For example, a response curve established over 6 doses of an antagonist using 8 sensilla per dose involved recording from a sensillum of 48 separate mosquitoes. A given dose of a PR antagonist or metal ion modulator was only presented once to a sensillum. Two-second recordings were imported as ASCII files into DataView software for analysis of spike amplitude. Differences in spike amplitude generated by stimulation of one 8v sensillum/female with 1 mM sucrose (n=294 spikes from 6 females) 200 pM adenosine (n=207 spikes from 7 females) and 200 pM ATP (n=192 spikes from 7 females) were compared by measuring the spike amplitude in mV between the highest point of depolarisation and the lowest point of hyperpolarisation.
Spike counts elicited by 200 pM doses of nucleotides, nucleosides, purines, pyrimidines and water were log(x+1.25)-transformed (optimal constant numerically established using a maximum likelihood procedure) and analysed using a linear mixed effects model (function ‘lme’ in “nlme” R package) with mosquito number as random effect. To model inhomogeneous variance in residuals (near normal distribution, P=0.045, Shapiro-Wilk test, W=0.98604), the variance function ‘varldent’ in the “nlme” package that allows for different variance per treatment was used. Statistical differences were identified between treatments using post-hoc-Tukey test with contrasts adjusted by Holm's family wise error compensation (FWEC). Spike counts elicited by ATP, AMP, adenosine and their binary mixtures were analysed using a generalised linear model (LM) of log (x+10) transformed data and differences were identified using post-hoc-Tukey test with Holm's FWEC.
Log transformed spike amplitudes generated in response to ATP, adenosine and sucrose were compared using linear mixed effects models using the ‘lme’ function of the “nlme” R package, with spike amplitude as the dependent variable, treatment as the fixed factor and mosquito number within treatment as random effect. Residuals were normally distributed (Shapiro-Wilk test P>0.0563) and their variances homogeneous (Bartlett test P>0.9799); P-values were corrected using Holm's FWEC.
Dose-response models fitted to mosquito data were generated using the ‘drm’ command in the “drc” R package (version 2.5-12). Best fitting models (goodness of fit) and effects of dose of a compound were assessed using, respectively, ‘modelFit’ and ‘noEffect’ functions in the same R package. A 3-parameter logistic model (L3) was fitted to spike-counts recorded to increasing doses of adenosine, AMP, ATP and AMP-CPP. Spike numbers recorded in response to 200 pM ATP with increasing doses of PR antagonists added were analysed using a 4-parameter log-logistic model (LL.4) for A-317491 and spinorphin, using a 4-parameter Weibull model (W1.4) for PPADS, RB-2 and TMP, and using a 3-parameter log-logistic model (LL.3) for suramin. An L3 model was fitted to proportions of females feeding on increasing doses of ATP. Feeding rates on 20 μM ATP with increasing doses of a PR antagonist added were analysed using a 4-parameter log-logistic model (LL.4) with the median of the positive control (20 μM ATP) fixed as the upper asymptote. […]

[2] = system: Vertebrate P2X3 and P2X2/3 PRs; conditions: cited from earlier work
[3] = spike frequency as a function of dose

## Cc1ccc(C(=O)Nc2ccc(S(=O)(=O)O)c3cc(S(=O)(=O)O)cc(S(=O)(=O)O)c23)cc1NC(=O)c1cccc(NC(=O)Nc2cccc(C(=O)Nc3cc(C(=O)Nc4ccc(S(=O)(=O)O)c5cc(S(=O)(=O)O)cc(S(=O)(=O)O)c45)ccc3C)c2)c1 [Suramin]
Amblyomma hebraeum; TFS + 500 μM
  Fluid intake, Median (mg): 4.5 mg/h
Ixodes ricinus; TFS + 500 μM
  Fluid intake, Median (mg): 1.9 mg/h

## Nc1ncnc2c1ncn2[C@@H]1O[C@H](COP(=O)(O)OP(=O)(O)OP(=O)(O)O)[C@@H](O)[C@H]1O [ATP, Adenosine 5′-triphosphate]
[1]; 50 pM alone, mixture 50 pM of each agonist
  spike frequency: 2.5±0.7 /2s
[1]; Anopheles gambiae, spike frequency as a function of dose, read-out: ED50 (the source's name)
  EC50: ~0.12 nM
[1]; at 250 pM
  spikes recorded at the asymptote: approximately 30 spikes/2 s
[1]; each compound at 200 pM alone and in binary mixtures, T1 labellum sensilla
  Mean spike frequency per 2 s (±SEM): 33.04 per 2 s
[1]; labellum sensory cell
  detection threshold: < 100 pM
[1]; [3]
  ED95: ~0.2 nM
  dose at which the unsurmountable asymptote is reached: 250 pM
[2]
  affinity: < 1 nM

## O=C(O)c1cc(C(=O)O)c(C(=O)N(Cc2cccc(Oc3ccccc3)c2)[C@H]2CCCc3ccccc32)cc1C(=O)O [A-317491, 5-[(3-phenoxyphenyl)methyl-[(1S)-1,2,3,4-tetrahydronaphthalen-1-yl]carbamoyl]benzene-1,2,4-tricarboxylic acid]
Amblyomma hebraeum; TFS + 1 μM
  Fluid intake, Median (mg): 6.7 mg/h
Ixodes ricinus; TFS + 1 μM
  Fluid intake, Median (mg): 1.5 mg/h
Ixodes ricinus; doses as in Table 9
  effect on feeding on solution containing ATP, in words: inhibited feeding
[2]; Jarvis et al., 2002
  Kd: 0.9 nM
